# Results from US20190352276A1, “INHIBITORS OF BRUTON'S TYROSINE KINASE” (Joint Stock Company "Biocad", priority 2016, published 2019).
# Assay: Chemical stability in artificial gastric fluid (SGF without enzymes); also: time not given here
# Details: 10 μM in SGF without enzymes, pH=1.4, 37° C.
row,Amount of substance in the sample in % (chemical stability) [%],Compound
1,100,C=CC(=O)N1CCC[C@@H](n2nc(-c3ccc(C(=O)Nc4ccccn4)cc3)c3cncc(Cl)c32)C1 [BCD-BTK -201]
2,95.5,"C=CC(=O)N1CCC[C@@H](n2nc(-c3ccc(Oc4ccncc4C#N)cc3)c3cncc(Cl)c32)C1 [BCD-BTK -202, (R)-4-(4-(1-(1-acryloylpiperidin-3-yl)-7-chloro-1H-pyrazolo[4,3-c]pyridin-3-yl)phenoxy)nicotinonitrile]"
3,100,"C=CC(=O)N1CCC[C@@H](n2nc(-c3ccc(Oc4ccncc4C(N)=O)cc3)c3cncc(Cl)c32)C1 [BCD-BTK -203, (R)-4-(4-(1-(1-acryloylpiperidin-3-yl)-7-chloro-1H-pyrazolo[4,3-c]pyridin-3-yl)phenoxy)nicotinamide]"
4,100,"C=CC(=O)N1CCC[C@@H](n2nc(-c3ccc(-n4ccc(=O)cc4)cc3F)c3cncc(Cl)c32)C1 [BCD-BTK -204, (R)-1-(4-(1-(1-acryloylpiperidin-3-yl)-7-chloro-1H-pyrazolo[4,3-c]pyridin-3-yl)-3-fluorophenyl)pyridin-4(1H)-one]"
5,100,"C=CC(=O)N1CCC[C@@H](n2nc(-c3ccc(-n4ccc(=O)cc4)c(F)c3)c3cncc(Cl)c32)C1 [BCD-BTK -205, (R)-1-(4-(1-(1-acryloylpiperidin-3-yl)-7-chloro-1H-pyrazolo[4,3-c]pyridin-3-yl)-2-fluorophenyl)pyridin-4(1H)-one]"
6,100,"C=CC(=O)N1CCC[C@@H](n2nc(-c3cnc(-n4ccc(=O)c(C#N)c4)nc3)c3cncc(Cl)c32)C1 [BCD-BTK -206, (R)-1-(5-(1-(1-acryloylpiperidin-3-yl)-7-chloro-1H-pyrazolo[4,3-c]pyridin-3-yl)pyrimidin-2-yl)-4-oxo-1,4-dihydropyridine-3-carbonitrile]"
7,100,"C=CC(=O)N1CCC[C@@H](n2nc(-c3cnc(-n4ccc(=O)c(C(N)=O)c4)nc3)c3cncc(Cl)c32)C1 [BCD-BTK -207, (R)-1-(5-(1-(1-acryloylpiperidin-3-yl)-7-chloro-1H-pyrazolo[4,3-c]pyridin-3-yl)pyrimidin-2-yl)-4-oxo-1,4-dihydropyridine-3-carboxamide]"
8,100,"C=CC(=O)N1CCC[C@@H](n2nc(-c3ccc(-n4ccc(=O)c(C#N)c4)cc3)c3cncc(Cl)c32)C1 [BCD-BTK -208, (R)-1-(4-(1-(1-acryloylpiperidin-3-yl)-7-chloro-1H-pyrazolo[4,3-c]pyridin-3-yl)phenyl)-4-oxo-1,4-dihydropyridine-3-carbonitrile]"
9,96.1,"C=CC(=O)N1CCC[C@@H](n2nc(-c3ccc(C(=O)Nc4cc(C(F)(F)F)ccn4)cc3)c3cncc(Cl)c32)C1 [BCD-BTK -210, (R)-4-(1-(1-acryloylpiperidin-3-yl)-7-chloro-1H-pyrazolo[4,3-c]pyridin-3-yl)-N-(4-(trifluoromethyl)pyridin-2-yl)benzamide]"
10,100,"C=CC(=O)N1CCC[C@@H](n2nc(-c3ccc(Oc4ccncc4)cc3)c3cncc(F)c32)C1 [BCD-BTK -211, (R)-1-(3-(7-fluoro-3-(4-(pyridin-4-yloxy)phenyl)-1H-pyrazolo[4,3-c]pyridin-1-yl)piperidin-1-yl)prop-2-en-1-one]"
11,100,"C=CC(=O)N1CCC[C@@H](n2nc(-c3ccc(C(=O)Nc4ccc(F)cn4)cc3)c3cncc(Cl)c32)C1 [BCD-BTK -212, (R)-4-(1-(1-acryloylpiperidin-3-yl)-7-chloro-1H-pyrazolo[4,3-c]pyridin-3-yl)-N-(5-fluoropyridin-2-yl)benzamide]"
12,97.4,"C=CC(=O)N1CCC[C@@H](n2nc(-c3ccc(Oc4ccncc4C#N)cc3)c3cncc(C#N)c32)C1 [BCD-BTK -213, (R)-1-(1-acryloylpiperidin-3-yl)-3-(4-(3-cyanopyridin-4-yloxy)phenyl)-1H-pyrazolo[4,3-c]pyridine-7-carbonitrile]"
13,100,"C=CC(=O)N1CCC[C@@H](n2nc(-c3ccc(C(=O)Nc4cc(C(F)(F)CC)ccn4)cc3)c3cncc(F)c32)C1 [BCD-BTK -214, (R)-4-(1-(1-acryloylpiperidin-3-yl)-7-fluoro-1H-pyrazolo[4,3-c]pyridin-3-yl)-N-(4-(1,1-difluoropropyl)pyridin-2-yl)benzamide]"
14,100,"C=CC(=O)N1CCC[C@@H](n2nc(-c3ccc(C(=O)Nc4cc(C(F)(F)CC)ccn4)cc3)c3cncc(Cl)c32)C1 [BCD-BTK -215, (R)-4-(1-(1-acryloylpiperidin-3-yl)-7-chloro-1H-pyrazolo[4,3-c]pyridin-3-yl)-N-(4-(1,1-difluoropropyl)pyridin-2-yl)benzamide]"
15,96.3,"C=CC(=O)N1CCC[C@@H](n2nc(-c3ccc(Oc4cccnc4C#N)cc3)c3cncc(C#N)c32)C1 [BCD-BTK -216, (R)-1-(1-acryloylpiperidin-3-yl)-3-(4-(2-cyanopyridin-3-yloxy)phenyl)-1H-pyrazolo[4,3-c]pyridine-7-carbonitrile]"
16,95.3,"C=CC(=O)N1CCC[C@@H](n2nc(-c3ccc(Oc4ccncc4C#N)cc3)c3cncc(F)c32)C1 [BCD-BTK -217, (R)-4-(4-(1-(1-acryloylpiperidin-3-yl)-7-fluoro-1H-pyrazolo[4,3-c]pyridin-3-yl)phenoxy)nicotinonitrile]"
17,96,"C=CC(=O)N1CCC[C@@H](n2nc(-c3ccc(Oc4cccnc4C#N)cc3)c3cncc(Cl)c32)C1 [BCD-BTK -218, 3-(4-{7-chloro-1-[1-(prop-2-enoyl)piperidin-3-yl]-1H-pyrazolo[4,3-c]pyridin-3-yl}phenoxy)pyridine-2-carbonitrile]"
18,97,"C=CC(=O)N1CCC[C@@H](n2nc(-c3ccc(Oc4ccncc4)cc3)c3cncc(C#N)c32)C1 [BCD-BTK - 123, (R)-1-(1-acryloylpiperidin-3-yl)-3-(4(pyridin-4-yloxy)phenyl)-1H-pyrazolo[4,3-c]pyridin-7-carbonitrile]"
19,100,"C=CC(=O)N1CCC[C@@H](n2nc(-c3ccc(Oc4ccncc4)cc3)c3cncc(Cl)c32)C1 [BCD-BTK - 125, (R)-1-(1-acryloylpiperidin-3-yl)-7-chloro-3-(4-(pyridin-4-yloxy)phenyl)-1H-pyrazolo[4,3-c]pyridine]"
20,100,"C=CC(=O)N1CCC[C@@H](n2nc(-c3ccc(Oc4ccncc4)cc3)c3c(N)ncc(C#N)c32)C1 [BCD-BTK - 134, (R)-1-(1-acryloylpiperidin-3-yl)-4-amino-3-(4-(pyridin-4-yloxy)phenyl)-1H-pyrazolo[4,3-c]pyridin-7-carbonitrile]"
21,100,"C=CC(=O)N1CCC[C@@H](n2nc(-c3ccc(Oc4ccncc4)cc3)c3c(N)ncc(Cl)c32)C1 [BCD-BTK - 139, (R)-1-(1-acryloylpiperidin-3-yl)-7-chloro-3-(4-(pyridin-4-yloxy)phenyl)-1H-pyrazolo[4,3-c]pyridin-4-amine]"
22,100,"C=CC(=O)N1CCC[C@@H](n2nc(-c3ccc(C(=O)Nc4cccc(F)n4)cc3)c3cncc(F)c32)C1 [BCD-BTK - 248, (R)-4-(1-(1-acryloylpiperidin-3-yl)-7-fluoro-1H-pyrazolo[4,3-c]pyridin-3-yl)-N-(6-fluoropyridin-2-yl)benzamide]"
23,100,"C=CC(=O)N1CCC[C@@H](n2nc(-c3ccc(C(=O)Nc4ncccc4F)cc3)c3cncc(F)c32)C1 [BCD-BTK - 249, (R)-4-(1-(1-acryloylpiperidin-3-yl)-7-fluoro-1H-pyrazolo[4,3-c]pyridin-3-yl)-N-(3-fluoropyridin-2-yl)benzamide]"
24,100,"C=CC(=O)N1CCC[C@@H](n2nc(-c3ccc(C(=O)Nc4cccc(F)n4)cc3)c3c(N)ncc(Cl)c32)C1 [BCD-BTK - 250, (R)-4-(1-(1-acryloylpiperidin-3-yl)-4-amino-7-chloro-1H-pyrazolo[4,3-c]pyridin-3-yl)-N-(6-fluoropyridin-2-yl)benzamide]"
25,100,"C=CC(=O)N1CCC[C@@H](n2nc(-c3ccc(C(=O)Nc4cc(C(F)(F)F)ccn4)cc3)c3c(N)ncc(Cl)c32)C1 [BCD-BTK - 251, (R)-4-(1-(1-acryloylpiperidin-3-yl)-4-amino-7-chloro-1H-pyrazolo[4,3-c]pyridin-3-yl)-N-(4-(trifluoromethyl)pyridin-2-yl)benzamide]"
26,94.4,"C=CC(=O)N1CCC[C@@H](n2nc(-c3ccc(C(=O)Nc4cc(C(F)(F)CCC)ccn4)cc3)c3cncc(Cl)c32)C1 [BCD-BTK - 252, (R)-4-(1-(1-acryloylpiperidin-3-yl)-7-chloro-1H-pyrazolo[4,3-c]pyridin-3-yl)-N-(4-(1,1-difluorobutyl)pyridin-2-yl)benzamide]"
27,100,"C=CC(=O)N1CCC[C@@H](n2nc(-c3ccc(C(=O)Nc4cc(C(F)(F)CCC)ccn4)cc3)c3c(N)ncc(Cl)c32)C1 [BCD-BTK - 254, (R)-4-(1-(1-acryloylpiperidin-3-yl)-4-amino-7-chloro-1H-pyrazolo[4,3-c]pyridin-3-yl)-N-(4-(1,1-difluorobutyl)pyridin-2-yl)benzamide]"
28,100,"C=CC(=O)N1CCC[C@@H](n2nc(-c3ccc(Oc4cccnc4C(N)=O)cc3)c3cncc(F)c32)C1 [BCD-BTK - 255, (R)-3-(4-(1-(1-acryloylpiperidin-3-yl)-7-fluoro-1H-pyrazolo[4,3-c]pyridin-3-yl)phenoxy)picolinamide]"
29,100,"CC#CC(=O)N1CC(n2nc(-c3ccc(Oc4ccncc4)cc3)c3cncc(Cl)c32)C1 [BCD-BTK - 281, 1-(3-(7-chloro-3-(4-(pyridin-4-yloxy)phenyl)-1H-pyrazolo[4,3-c]pyridin-1-yl)azetidin-1-yl)but-2-yn-1-one]"
